The results in this text go back to patent EP1644371B1, “PYRAZOLOISOQUINOLINE DERIVATIVES AS KINASE INHIBITORS” (Aventis Pharmaceuticals Inc., priority 2003, dated 2005).

Structures are written as SMILES. Read-outs that look alike come from different tables or passages of the source.

Common to all, as to type: cell-based
Series [1] concerns human peripheral blood lymphocytes. The series can be described thus: Cytotoxicity by LDH release. On the procedure:
(§1) The pyrazoloisoquinoline derivatives according to the invention were tested for inhibitory activity against NIK in various in vitro assay systems. In this connection, human peripheral blood lymphocytes were preincubated for 1 h with different concentrations of the compounds and then stimulated for 24 h with LPS or IL1 β. After that, a commercially obtainable ELISA test kit was used to measure the release of TNFα in the culture supernatant, and the IC50 for the given compound was determined. The cytotoxicity was measured by way of LDH release using a commercially obtainable test kit and the LD50 for the given compound was determined.
(In general: Release of lactate dehydrogenase indicates damage to the cell membrane.)

The subject of series [2] is LPS-stimulated heparinized whole human blood. The series can be described thus: Release of IL1β, TNFα and IL6 in LPS-stimulated heparinized whole human blood. The conditions noted are these: 24 h. On the procedure: In another assay, heparinized whole human blood was preincubated for 1 h with different concentrations of the compounds and then stimulated with LPS for 24 h. Commercially available test kits were used to measure the release of IL1β, TNFα and IL6 in the supernatant after 24 h, and the IC50 for the given compound was determined.

In series [3] the test system is LPS-stimulated human peripheral blood lymphocytes. The series can be described thus: Cytokine release in LPS-stimulated human peripheral blood lymphocytes (ELISA). The conditions noted are these: Lymphocyte. How it is done:
as §1
(In an ELISA, binding on a coated surface is turned into a signal by an enzyme label.)

The subject of series [4] is IL1 β-stimulated human peripheral blood lymphocytes. The series can be described thus: Cytokine release in IL1β-stimulated human peripheral blood lymphocytes (ELISA). Conditions: Lymphocyte. How it is done:
The pyrazoloisoquinoline derivatives according to the invention were tested for inhibitory activity against NIK in various in vitro assay systems. In this connection, human peripheral blood lymphocytes were preincubated for 1 h with different concentrations of the compounds and then stimulated for 24 h with LPS or IL1 β. […] The cytotoxicity was measured by way of LDH release using a commercially obtainable test kit and the LD50 for the given compound was determined.

The mark [5] stands for this setting: IL1 β-stimulated human peripheral blood lymphocytes (Table 2).
Where [6] appears, read: LPS-stimulated human peripheral blood lymphocytes (Table 1).
[7] abbreviates: 1 h preincubation, 24 h stimulation, read-out: TNFα release IC50.

As for `c1ccc(-c2nc3c(-c4ccccc4)n[nH]c3c3ccccc23)cc1` [Example 1, 3,5-Diphenyl-1H-pyrazolo[4,3-c]isoquinoline], the “Cytotoxicity LD50” value in series [1] (setting [5]) is >100 µM; in series [1] (setting [6]), > 100 µM. Further, the IC50 in series [2] (read-out: IL1β release IC50) is 33 µM; in series [2] (read-out: IL6 release IC50), > 100 µM; in series [2] (read-out: TNFα release IC50), 12.5 µM; in series [3] (setting [7]) it was 1.9 µM; in series [3] (read-out: IL6 release IC50) it was 80 µM; in series [4] (setting [7]) it was 5 µM. The IC50 in series [4] (read-out: IL6 release IC50) was 80 µM.
`COc1cccc(-c2nc3c(C)n[nH]c3c3ccccc23)c1` [Example 2, 5-(3-Methoxyphenyl)-3-methyl-1H-pyrazolo[4,3-c]isoquinoline]: the “Cytotoxicity LD50” value in series [1] (setting [5]) and in series [1] (setting [6]) was > 100 µM throughout. The IC50 in series [2] (read-out: IL1β release IC50) was 1.3 µM; in series [2] (read-out: IL6 release IC50) it was 7 µM; in series [2] (read-out: TNFα release IC50) it was 1.2 µM; in series [3] (setting [7]), 9 µM; in series [3] (read-out: IL6 release IC50), > 100 µM; in series [4] (setting [7]) it was 35 µM. In addition, in series [4] (read-out: IL6 release IC50), the IC50 is > 100 µM.
For the compound `Cc1n[nH]c2c1nc(-c1cccc(O)c1)c1ccccc12` [Example 3, 3-(3-Methyl-1H-pyrazolo[4,3-c]isoquinolin-5-yl)phenol], the “Cytotoxicity LD50” value in series [1] (setting [5]) and in series [1] (setting [6]) was > 100 µM each time. For the same compound, the half-maximal inhibitory concentration (IC50) is 29 µM in series [2] (read-out: IL1β release IC50); > 100 µM in series [2] (read-out: IL6 release IC50); 5 µM in series [2] (read-out: TNFα release IC50); 7.5 µM in series [3] (setting [7]); 80 µM in series [3] (read-out: IL6 release IC50); 8 µM in series [4] (setting [7]). In series [4] (read-out: IL6 release IC50), the concentration for half-maximal inhibition (IC50) is > 100 µM.

For orientation: IC50 means the concentration needed to halve the response being measured.
